Assay results: patent US9630977B2, “Cephalosporin derivatives and pharmaceutical compositions thereof” (Legochem Biosciences, Inc., priority 2011, dated 2017)
In brackets after ≈: the same amount, converted by molar mass. Like-named read-outs stand apart in the source and are kept apart here.

Legend:
19 clinical isolates = test: In vitro antibacterial activity test, panel of 19 clinical isolates as a whole; format: cell-based; conditions: effect of a siderophore group, Table 1
Method: To evaluate antibacterial activity of each of the compounds of Examples 1 to 68, in vitro antibacterial activity test was performed.
The in vitro antibacterial activity was evaluated by measuring MIC90 (ug/mL) of each of the compounds of Examples 1 to 68, which is defined as the lowest concentration of an antibiotic that will inhibit the visible growth of 90% of microorganisms after incubation as compared with a control group to which the antibiotic is not treated. MIC90 values were measured by the broth microdilution method developed by the Clinical and Laboratory Standards Institute (CLSI) (see CLSI M7-A5, Methods for Dilution Antimicrobial Susceptibility Test for Bacteria that Grow Aerobically-Fifth Edition (2000): CLSI, Villanova, Pa.).
In vitro antibacterial activity was measured with respect to the following 19 clinical isolates: M. catarrhalis; P. aeruginosa (5 strains); K. pneumoniae (6 strains); A. baumannii (3 strains); E. coli (2 strains); A. calcoaceticus; and E. cloacae.
Test compounds each (the cephalosporin derivative compounds prepared in Examples 1 to 68) were dissolved in DMSO at the concentration of 10,240 ug/mL, were diluted by two fold with DMSO, and then were diluted by twenty fold with sterilized distilled water. The final concentration in the antibacterial activity test was in the range of […] to 128 ug/mL, and the final concentration of DMSO used as an adjuvant was 2.5% (V/V).

[1] = system: K. pneumoniae (38 clinical isolates); test: Antibacterial activity on representative drug-resistance bacteria: number of clinical isolates per MIC value; format: cell-based; conditions: K. pneumomiae (N = 38)
[2] = system: A. baumannii (6 clinical isolates); test: as above; format: cell-based; conditions: A. baumanni (N = 6)
[3] = system: P. aeruginosa (16 clinical isolates); test: as above; format: cell-based; conditions: P. aeruginosa (N = 16)
[4] = Pharmacokinetics study in rat, IV; format: in vivo, SD rat; conditions: Rat (10 mg/kg) single IV; for AUC / Cmax / Tmax / clearance / half-life / Vd: SD, plasma; for Vd: read-out: Vss
Method: Test animals: 9 week old SD rat, weight 290˜310 g; 3 rats/sample time point
Lab conditions: Temperature of 21±2° C.; humidity of 50±20%
Administration method: Injecting test compound solution through tail vein (IV)
Test method: Blood samples were taken from jugular vein at a predetermined time period for 24 hours after administration, plasma was separated, and quantified by using LC-MS/MS.

E. coli β4 = test: In vitro antibacterial activity test (broth microdilution); format: cell-based; conditions: Escherichia coli, read-out: MIC90
Procedure, shortened: (§1)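 Clinical isolates were tested in two-fold dilution series (final 0.0626–128 ug/mL, 2.5% v/v DMSO) by the CLSI broth microdilution method. Values are MIC90, the lowest concentration preventing visible growth of 90% of organisms compared with untreated control.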

K. pneumoniae 2011E = test: as above; format: cell-based; conditions: Klebsiella pneumoniae, 2011E, K. pneumoniae 2011E; read-out: MIC90
Procedure, shortened: as §1

E. cloacae β19 = test: as above; format: cell-based
Procedure, shortened: as §1

K. pneumoniae β13 = test: as above; format: cell-based; conditions: K. pneumoniae β13
Procedure, shortened: as §1

P. aeruginosa 6065Y = test: as above; format: cell-based
Procedure, shortened: as §1

K. pneumoniae β11 = test: as above; format: cell-based; conditions: Klebsiella pneumoniae; K. pneumoniae β11; read-out: MIC90
Procedure, shortened: as §1

P. aeruginosa 37 = test: as above; format: cell-based; conditions: Pseudomonas aeruginosa, 37, P. aeruginosa 37; read-out: MIC90
Procedure, shortened: as §1

K. pneumoniae β10 = test: as above; format: cell-based; conditions: Klebsiella pneumoniae; K. pneumoniae β10; read-out: MIC90
Procedure, shortened: as §1

K. pneumoniae β14 = test: as above; format: cell-based; conditions: Klebsiella pneumoniae, read-out: MIC90
Procedure, shortened: as §1

A. baumannii 49 = test: as above; format: cell-based; conditions: Acinetobacter baumannii; A. baumannii 49; read-out: MIC90
Procedure, shortened: as §1

K. pneumoniae β9 = test: as above; format: cell-based; conditions: Klebsiella pneumoniae, K. pneumoniae β9; read-out: MIC90
Procedure, shortened: as §1

P. aeruginosa 40 = test: as above; format: cell-based; conditions: Pseudomonas aeruginosa, 40, P. aeruginosa 40; read-out: MIC90
Procedure, shortened: as §1

P. aeruginosa 1912E = test: as above; format: cell-based
Procedure, shortened: as §1

E. coli AG100 = test: as above; format: cell-based; conditions: Escherichia coli, AG100, E. coli AG100; read-out: MIC90
Procedure, shortened: as §1

M. catarrhalis 2524 = test: as above; format: cell-based; conditions: M. catarrhalis 2524
Procedure, shortened: as §1

A. baumannii 52 = test: as above; format: cell-based; conditions: Acinetobacter baumannii; A. baumannii 52; read-out: MIC90
Procedure, shortened: as §1

A. baumannii 46 = test: as above; format: cell-based; conditions: Acinetobacter baumannii; A. baumannii 46; read-out: MIC90
Procedure, shortened: as §1

[5] = system: A. calcoaceticus ATCC15473; test: as above; format: cell-based; conditions: Acinetobacter calcoaceticus; A. calcoaceticus ATCC15473; read-out: MIC90
Procedure, shortened: as §1

P. aeruginosa 43 = test: as above; format: cell-based; conditions: Pseudomonas aeruginosa; P. aeruginosa 43; read-out: MIC90
Procedure, shortened: as §1

SMILES: C[C@H](O/N=C(\C(=O)N[C@@H]1C(=O)N2C(C(=O)[O-])=C(C[n+]3cnc(N)c(NCCNC(=O)c4cc(=O)c(O)cn4O)c3)CSC12)c1nc(N)sc1Cl)C(=O)O (stereo partly shown) [Compound 4]
- antibacterial activity (in words) (19 clinical isolates): significantly improved
- number of clinical isolates that showed the respective MIC value ([1]; MIC 0.25 ug/mL): 1
- number of clinical isolates that showed the respective MIC value ([1]; MIC 1 ug/mL): 1
- number of clinical isolates that showed the respective MIC value ([1]; MIC 2 ug/mL): 3
- number of clinical isolates that showed the respective MIC value ([1]; MIC 4 ug/mL): 2
- number of clinical isolates that showed the respective MIC value ([1]; MIC 8 ug/mL): 3
- number of clinical isolates that showed the respective MIC value ([1]; MIC 16 ug/mL): 2
- number of clinical isolates that showed the respective MIC value ([1]; MIC >16 ug/mL): 26
- number of clinical isolates that showed the respective MIC value ([2]; MIC 0.125 ug/mL): 1
- number of clinical isolates that showed the respective MIC value ([2]; MIC 2 ug/mL): 2
- number of clinical isolates that showed the respective MIC value ([2]; MIC >16 ug/mL): 3
- number of clinical isolates that showed the respective MIC value ([3]; MIC 0.0625 ug/mL): 1
- number of clinical isolates that showed the respective MIC value ([3]; MIC 0.25 ug/mL): 5
- number of clinical isolates that showed the respective MIC value ([3]; MIC 0.5 ug/mL): 2
- number of clinical isolates that showed the respective MIC value ([3]; MIC 1 ug/mL): 1
- number of clinical isolates that showed the respective MIC value ([3]; MIC 2 ug/mL): 2
- number of clinical isolates that showed the respective MIC value ([3]; MIC 4 ug/mL): 1
- number of clinical isolates that showed the respective MIC value ([3]; MIC 8 ug/mL): 1
- number of clinical isolates that showed the respective MIC value ([3]; MIC >16 ug/mL): 3
- AUCnorm [4]: 4.03 kg·h/L
- Cmax,norm [4]: 7.58 kg/L
- AUC [4]: 40300 ng·h/mL
- Cmax [4]: 75.8 µg/mL
- Tmax [4]: 1.2 min
- clearance [4]: 4.17 mL/min/kg
- half-life [4]: 37.2 min
- Vd [4]: 0.2 L/kg
- MIC90 (E. coli β4): 0.5 µg/mL (≈ 0.63 µM)
- MIC90 (K. pneumoniae 2011E): 2 µg/mL (≈ 2.52 µM)
- MIC90 (E. cloacae β19; Enterobacter cloacae, read-out: MIC90): 1 µg/mL (≈ 1.26 µM)
- MIC90 (K. pneumoniae β13; Klebsiella pneumoniae, read-out: MIC90): 1 µg/mL (≈ 1.26 µM)
- MIC90 (P. aeruginosa 6065Y; Pseudomonas aeruginosa, read-out: MIC90): 0.5 µg/mL (≈ 0.63 µM)
- MIC90 (K. pneumoniae β11): 4 µg/mL (≈ 5.04 µM)
- MIC90 (P. aeruginosa 37): 0.5 µg/mL (≈ 0.63 µM)
- MIC90 (K. pneumoniae β10): 0.5 µg/mL (≈ 0.63 µM)
- MIC90 (K. pneumoniae β14): 32 µg/mL (≈ 40.3 µM)
- MIC90 (A. baumannii 49): 8 µg/mL (≈ 10.1 µM)
- MIC90 (K. pneumoniae β9): 0.5 µg/mL (≈ 0.63 µM)
- MIC90 (P. aeruginosa 40): 1 µg/mL (≈ 1.26 µM)
- MIC90 (P. aeruginosa 1912E; Pseudomonas aeruginosa, 1912E, read-out: MIC90): 0.5 µg/mL (≈ 0.63 µM)
- MIC90 (E. coli AG100): 0.125 µg/mL (≈ 0.157 µM)
- MIC90 (M. catarrhalis 2524; Moraxella catarrhalis, read-out: MIC90): 0.25 µg/mL (≈ 0.315 µM)
- MIC90 (A. baumannii 52): 4 µg/mL (≈ 5.04 µM)
- MIC90 (A. baumannii 46): 64 µg/mL (≈ 80.6 µM)
- MIC90 [5]: 2 µg/mL (≈ 2.52 µM)
- MIC90 (P. aeruginosa 43): 1 µg/mL (≈ 1.26 µM)

SMILES: CC(C)(O/N=C(\C(=O)N[C@@H]1C(=O)N2C(C(=O)[O-])=C(/C=C/C[n+]3cnc(N)c(NCCNC(=O)c4cc(=O)c(O)cn4O)c3)CSC12)c1csc(N)n1)C(=O)O (stereo partly shown) [Compound 8]
- antibacterial activity (in words) (19 clinical isolates): significantly improved
- number of clinical isolates that showed the respective MIC value ([1]; MIC 0.25 ug/mL): 1
- number of clinical isolates that showed the respective MIC value ([1]; MIC 8 ug/mL): 1
- number of clinical isolates that showed the respective MIC value ([1]; MIC <0.0625 ug/mL): 1
- number of clinical isolates that showed the respective MIC value ([1]; MIC >16 ug/mL): 35
- number of clinical isolates that showed the respective MIC value ([2]; MIC 0.5 ug/mL): 1
- number of clinical isolates that showed the respective MIC value ([2]; MIC >16 ug/mL): 5
- number of clinical isolates that showed the respective MIC value ([3]; MIC 0.125 ug/mL): 2
- number of clinical isolates that showed the respective MIC value ([3]; MIC 0.25 ug/mL): 1
- number of clinical isolates that showed the respective MIC value ([3]; MIC 0.5 ug/mL): 2
- number of clinical isolates that showed the respective MIC value ([3]; MIC 1 ug/mL): 2
- number of clinical isolates that showed the respective MIC value ([3]; MIC 2 ug/mL): 2
- number of clinical isolates that showed the respective MIC value ([3]; MIC 4 ug/mL): 3
- number of clinical isolates that showed the respective MIC value ([3]; MIC 8 ug/mL): 1
- number of clinical isolates that showed the respective MIC value ([3]; MIC >16 ug/mL): 3
- AUCnorm [4]: 5.46 kg·h/L
- Cmax,norm [4]: 19.61 kg/L
- AUC [4]: 54600 ng·h/mL
- Cmax [4]: 196 µg/mL
- Tmax [4]: 1.2 min
- clearance [4]: 3 mL/min/kg
- half-life [4]: 52.2 min
- Vd [4]: 0.09 L/kg
- MIC90 (E. coli β4): 0.5 µg/mL (≈ 0.625 µM)
- MIC90 (K. pneumoniae 2011E): 1 µg/mL (≈ 1.25 µM)
- MIC90 (E. cloacae β19): 32 µg/mL (≈ 40 µM)
- MIC90 (K. pneumoniae β13): 0.25 µg/mL (≈ 0.313 µM)
- MIC90 (P. aeruginosa 6065Y): 4 µg/mL (≈ 5 µM)
- MIC90 (K. pneumoniae β11): 32 µg/mL (≈ 40 µM)
- MIC90 (P. aeruginosa 37): 1 µg/mL (≈ 1.25 µM)
- MIC90 (K. pneumoniae β10): < 0.0625 µg/mL
- MIC90 (K. pneumoniae β14): 8 µg/mL (≈ 10 µM)
- MIC90 (A. baumannii 49): > 128 µg/mL
- MIC90 (K. pneumoniae β9): 0.5 µg/mL (≈ 0.625 µM)
- MIC90 (P. aeruginosa 40): 0.5 µg/mL (≈ 0.625 µM)
- MIC90 (P. aeruginosa 1912E): 1 µg/mL (≈ 1.25 µM)
- MIC90 (E. coli AG100): 0.0625 µg/mL (≈ 0.0781 µM)
- MIC90 (M. catarrhalis 2524): 0.5 µg/mL (≈ 0.625 µM)
- MIC90 (A. baumannii 52): > 128 µg/mL
- MIC90 (A. baumannii 46): 8 µg/mL (≈ 10 µM)
- MIC90 [5]: 2 µg/mL (≈ 2.5 µM)
- MIC90 (P. aeruginosa 43): 1 µg/mL (≈ 1.25 µM)
